The numbers were not newly measured in patent US5891887A, “Use of [R-(Z)]-α-(methoxyimino)-α-(1-azabicyclo [2.2.2.]oct-3-yl)acetonitrile to reduce amyloid βA4 formation in alzheimer's disease” (priority 1994, dated 1999), which cites them from elsewhere.

The series relates to m1 and/or m3 receptor subtypes. Conditions: by activation of m1 and/or m3 receptor subtypes; literature.
Regarding `CC1OC2(CS1)CN1CCC2CC1` (stereo not drawn) [AF-102B], the “Production of non-amyloidogenic APP fragments” value is on record as “enhance”.
Consider `CCCCCCOc1nsnc1C1=CCCN(C)C1` [xanomeline], for which the “Production of non-amyloidogenic APP fragments” value is recorded as “enhance”.
With `CC(C[N+](C)(C)C)OC(N)=O` (stereo not drawn) [bethanechol], the “Production of non-amyloidogenic APP fragments” value was “enhance”.
